According to US6632794B1, “Insulin-like growth factor agonist molecules” (Genentech, Inc., priority 1997, dated 2003):
Positions of bridges follow the written chain, without caps; N, C: chain ends. Residues, ends and D or L forms follow the SMILES beside them. No end group written: not given here.

Legend:
IGFBP-1 [1] = target: T1, IGFBP-1 (Homo sapiens, UniProt P08833); assay: BIAcore competition assay, IGFBP-1 binding to IGF-I; conditions: for IGF-I Inhibition IC50 (114)/IC50 (mut) / IGF-I Inhibition IC50 (116)/IC50 (mut): g3 bp1-01 selectants by BIAcore, higher = better; for IGF-I Inhibition IC50 (114)/IC50 (mut): relative to bp1-14; for IGF-I Inhibition IC50 (116)/IC50 (mut): relative to bp1-16
T1 construct: biotin (chemical label, EZ-LINK NHS-SS-Biotin)
T1 sequence (P08833 26-259): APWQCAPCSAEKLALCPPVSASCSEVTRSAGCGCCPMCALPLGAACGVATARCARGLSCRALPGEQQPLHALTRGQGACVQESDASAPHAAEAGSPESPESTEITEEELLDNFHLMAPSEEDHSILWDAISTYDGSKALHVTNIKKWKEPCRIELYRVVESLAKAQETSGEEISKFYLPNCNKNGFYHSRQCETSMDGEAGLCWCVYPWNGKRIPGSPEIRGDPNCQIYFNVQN
Procedure: Two series of synthetic peptide variants were generated to determine which side chains of the bp1-01 peptide might contribute directly to binding IGFBP-1. In the first series an alanine-scanning approach (Cunningham and Wells, Science, 244: 1081-1085 (1989)) was used to remove that portion of each side chain beyond the beta carbon. The contribution of these atoms to the free energy of binding of the peptide to IGFBP-1 was then assessed by measuring the potency (IC50) of the variant for inhibiting IGFBP-1 binding to IGF-I or IGF-II in a BIAcore™competition assay, analogous to that described for IGFBP-3 (see Example 7).
(§1) Substitutions at the N-terminus or C-terminus yielded affinity improvements. […] All of these peptides had similar or improved apparent affinity for IGFBP-1 as compared with bp1-01 and bp1-02 and are thus expected to increase the availability of IGF-I in an in vitro cell culture assay.

IGFBP-1 [2] = target: T1, IGFBP-1; assay: Biotin-BP plate (ELISA) assay, biotinylated IGFBP-1 binding to IGF-I; conditions: C-terminal bp1-01 variants by ELISA
Procedure: 1. Biotin-BP Assay (for IGFBP-1 Binders)
For inhibition of IGFBP-1 binding, IGFBP-1 (as well as IGFBP-3 as a control) were biotinylated as described above. MAXISORP™plates were coated and blocked as described above, using 2 μg/mL IGF-I. In a separate plate, serial dilutions of peptide were premixed with a constant concentration (20 nM) of biotinylated IGFBP-1. After 20 min. at room temperature, the mixture was added to the IGF-I plate. The peptide/IGFBP mix was then removed and the plate was washed ten times with PBS buffer containing 0.05% TWEEN-20™ surfactant. Bound biotin-IGFBP-1 was then detected using streptavidin-conjugated horse radish peroxidase, and a chromogenic substrate.
A second series of peptides made use of non-natural amino acids to probe whether other structural features such as an added methyl group at the alpha carbon, or an isomer (D-alanine) could affect peptide binding to IGFBP-1.
as §1

hypophysectomized rats = assay: Long-term administration to hypophysectomized rats; format: in vivo, rat; conditions: one week
From the text: Young female SD rats were hypophysectomized at Taconic Laboratories and delivered several days later. The rats were then weighed frequently and those whose weight increased or decreased by more than 7 grams between 2 and 3 weeks following hypophysectomy were excluded from the study. Twenty-five rats were grouped randomly into five groups based on their body weight, and then randomly assigned to cages, with four rats per cage. The animals were allowed ad libitum access to food and water and housed in a room controlled for temperature and lighting.
1) Excipient pump, excipient injections;
2) (Leu^24,Ala^31)hIGF-I (10 μg/day, by SC minipump), excipient injections;
3) (Leu^24,Ala^31)hIGF-I (50 μg/day, by SC minipump), excipient injections;
4) Recombinant human GH (NUTROPIN™ brand from Genentech, Inc., 20 μg/day, by SC injection, two injections each of 10 μg/day), excipient minipump; or
5) (Leu^24,Ala^31)hIGF-I (50 μg/day, by SC minipump) plus recombinant human GH (20 μg/day, by SC injection, two injections each of 10 μg/day).
The rats were dosed for one week.
The mutant (Leu^24,Ala^31)hIGF-I was administered by osmotic minipumps (ALZET 2001™, Alza, Palo Alto, Calif.), which were placed in a subcutaneous tunnel in the dorsal neck region of the rats while they were anesthetized with KETAMINE™/XYLAZINE™ anesthesia. The pumps were filled with solutions so that the calculated daily dose was 50 μg or 10 μg, assuming that 24 μl of solution was delivered each day for one week.
Recombinant human GH was administered for one week by twice daily SC injections of 10 μg in 100 μl volume.
Body weights were measured daily in the morning. At the end of the week of dosing the animals were anesthetized via CO2 and exsanguinated via cardiac puncture. The remaining blood was allowed to clot and serum was separated and stored for further analysis.
(§2) Spleen, thymus, heart, liver, kidney, and perirenal fat were removed and weighed. The tibia was removed and fixed in neutral buffered formalin for histological measurement of epiphyseal plate width.
Serum chemistries were measured on an automated Chem I analyzer. Serum insulin concentration was measured using an RIA Kit supplied by Linco, Inc. To measure the IGF-I concentrations the serum was extracted using acid ethanol and the supernatant diluted to neutrality and assayed for IGF-I by RIA.
Tibia were sectioned longitudinally, stained with Toluene Blue, and mounted on microscope slides. The tibial epiphyseal plate width was measured using an ocular micrometer attached to a microscope.
Data were analyzed statistically by analysis of variance using one factor and two factor ANOVA.

dwarf rats = assay: Long-term administration to GH-deficient dwarf (dw/dw) rats; format: in vivo, rat
From the text: Young female dwarf rats (11-12 wk of age, 115-140 g) were bred by homozygous mating (Charles Rivers Laboratories) and delivered to the Genentech Animal House where they were housed five per cage on polystyrene chips and fed a standard animal chow and water ad libitum, and kept in a room of constant humidity and with controlled temperature and lighting. The animals were weighed, and based on uniformity of body weight, 37 of the animals were selected and randomized into treatment groups and cages to give six treatment groups of equal initial body weights (approximately 120 g).
The study consisted of six groups of rats with six or seven rats per group.
The mutant (Leu^24,Ala^31)hIGF-I and native sequence recombinant human IGF-I were administered by osmotic minipumps (ALZET 2001™, Alza, Palo Alto, Calif.) which were placed in a subcutaneous tunnel in the dorsal neck region while the rats were anesthetized with KETAMINE/XYLAZINE™ anesthesia. The pumps were filled with solutions so that the calculated daily dose was 120 μg per rat per day (1 mg/kg/day), assuming that the pump delivered as per the manufacturer's description (24 μl of solution per day).
Recombinant human GH (50 μg/day) was administered for eight days by twice daily sc injection, with each injection being of 25 μg in a volume of 100 μl.
Body weights were measured daily in the morning. After 8 days the animals were anesthetized using CO2 and exsanguinated by cardiac puncture. The remaining blood was allowed to clot and serum was separated and stored for further analysis.
as §2
Serum chemistries were measured using a TECHNICON CHEM I PLUS™ analyzer. Serum insulin concentration was measured using an RIA kit supplied by Linco, Inc. To measure the IGF-I concentrations the serum was extracted using acid ethanol and the supernatant diluted to neutrality and assayed for IGF-I by RIA. The concentration of rat IGF-I in serum extract was measured by RIA using a kit from Diagnostic Systems Laboratories, Inc. Human IGF-I concentration was measured by RIA at Genentech, Inc.
Tibia were sectioned longitudinally, stained with TOLULENE BLUE™ stain and mounted on microscope slides. The tibial epiphyseal plate width was measured using an ocular micrometer attached to a microscope.
Data were analyzed statistically by analysis of variance using one-factor ANOVA followed by Duncan's Range Test.

[3] = serum at sacrifice, 8 days, Means ± SEM

For `CC(C)C[C@@H]1NC(=O)[C@H](Cc2c[nH]c3ccccc23)NC(=O)[C@H](CCC(N)=O)NC(=O)[C@H](CC(C)C)NC(=O)[C@@H]2CCCN2C(=O)CNC(=O)[C@H](C)NC(=O)[C@H](CCCNC(=N)N)NC(=O)[C@@H](NC(=O)[C@@H](NC(=O)[C@H](CCCNC(=N)N)NC(=O)[C@H](C)NC(=O)[C@@H](N)CCC(=O)O)C(C)C)CSSC[C@@H](C(=O)N[C@@H](CCC(=O)O)C(=O)N[C@@H](CCCCN)C(=O)N[C@@H](Cc2ccc(O)cc2)C(=O)N[C@@H](Cc2ccccc2)C(N)=O)NC1=O` [bp1-20] (H-EARVCRAGPLQWLCEKYF-NH2; disulfide 5-14), which “IGF-I Inhibition IC50 (114)/IC50 (mut)” value (IGFBP-1 [1]) is on record?
The value was 2.6.

And the “IGF-I Inhibition IC50 (116)/IC50 (mut)” value (IGFBP-1 [1])?
Its value is 12.

What does the source list for `CC(C)C[C@@H]1NC(=O)[C@H](Cc2c[nH]c3ccccc23)NC(=O)[C@H](CCC(N)=O)NC(=O)[C@H](CC(C)C)NC(=O)[C@@H]2CCCN2C(=O)CNC(=O)[C@H](C)NC(=O)[C@H](CCCNC(=N)N)NC(=O)[C@@H](NC(=O)CNC(=O)[C@@H](NC(=O)[C@H](CCC(=O)O)NC(=O)[C@@H](N)CO)C(C)C)CSSC[C@@H](C(=O)N[C@@H](CCC(=O)O)C(=O)N[C@@H](CCCCN)C(=O)N[C@@H](Cc2ccc(O)cc2)C(=O)N[C@@H](Cc2ccccc2)C(=O)N[C@@H](CO)C(=O)N[C@H](C(=O)N[C@@H](Cc2ccc(O)cc2)C(N)=O)[C@@H](C)O)NC1=O` [bp1-21A] (H-SEVGCRAGPLQWLCEKYFSTY-NH2; disulfide 5-14)?
affinity improvement compared with bp1-14 (18-mer) (IGFBP-1 [1]; IGFBP-1): 3 fold; IGF-I Inhibition IC50 (114)/IC50 (mut) (IGFBP-1 [1]): 3.2; IGF-I Inhibition IC50 (116)/IC50 (mut) (IGFBP-1 [1]): 15

With CRAGPLQWLCE [bp1-04] as the compound, how does the “IGF-I Inhibition IC50 (mut)/IC50 (wt)” value (IGFBP-1 [2]) read?
The value was greater than 1000.

How did the “IGF-I Inhibition IC50 (mut)/IC50 (wt)” value (IGFBP-1 [2]) turn out when CRAGPLQWLCEK [bp1-17] was run?
Its value is greater than 1000.

Which “affinity improvement compared with bp1-16” value (IGFBP-1 [1]; IGFBP-1) does the source give for “CRAGPLQWLCEKYFSTY-nh2 (CRAGPLQWLCEKYFSTY-NH2; disulfide 1-10) [bp1-21B]” here?
The value was roughly 3 fold.

With “hGH: Recombinant human GH (NUTROPIN brand from Genentech, Inc.)” as the compound, how does the body weight gain (hypophysectomized rats; IGF agonist 50 μg/day SC minipump, hGH 20 μg/day SC, or both) read?
The body weight gain was “significant increase in body weight”.

What about the absolute thymus weight (hypophysectomized rats; IGF agonist 50 μg/day, hGH 20 μg/day, or both) of the same compound?
Its absolute thymus weight is “almost equal”.

What about the “absolute and relative heart weight” value (hypophysectomized rats; IGF agonist 10 and 50 μg, hGH 20 μg/day, or combination) of the same compound?
Its value is “slightly increased absolute heart weight and caused a fall in relative heart weight”.

And the absolute spleen weight (hypophysectomized rats; IGF mutant 10 and 50 μg/day, hGH 20 μg/day, or hGH plus 50 μg/day)?
The absolute spleen weight was “greater than that to the IGF agonist”.

What about the epiphyseal plate width (hypophysectomized rats; rhGH 20 μg/day) of the same compound?
The epiphyseal plate width was “around 400 μm”.

What about the epiphyseal plate widths (dwarf rats; 8 days) of the same compound?
Its epiphyseal plate widths is “significantly (p<0.05) increased”.

What about the body weight gain (dwarf rats; Day 5, hGH 50 μg/d, IGF mutant 120 μg/day) of the same compound?
The body weight gain was 12.4 ± 0.9 g.

And the AST (dwarf rats; [3])?
Its AST is 123 ± 13 U/l.

And the BUN (dwarf rats; [3])?
Its BUN is 15.6 ± 0.7 mg/dL.

And the CK (dwarf rats; [3])?
Its CK is 184 ± 29 u/l.

And the Creatinine (dwarf rats; [3])?
The Creatinine was 0.33 ± 0.02 mg/dL.

And the Glucose (dwarf rats; [3])?
The Glucose was 192 ± 10 mg/dL.

What about the Insulin (dwarf rats; [3]) of the same compound?
The Insulin was 1.48 ± 0.29 ng/mL.
